Test results reported in patent US20240287054A1, “COMPOUNDS THAT BIND NON-CANONICAL G-QUADRUPLEX STRUCTURES AND METHODS OF MAKING AND USING THE SAME” (The U.S.A., as Represented by the Secretary, Department of …, priority 2021, published 2024).

What was measured:
dsDNA = assay: SPR binding to dsDNA; settings: up to 5 μM compound injection
MANGO II RNA G4 = assay: SPR binding to MANGO II RNA G4; settings: duplex-containing RNA G4
PIM1-form1 HP-G4 = assay: FIA binding test with PIM1-form1 HP-G4 ((3+1) hybrid structure)
Description: In this study, FIA was used for validating the bindings between certain bivalent and MYCN G4 oligos. To measure the binding affinity, a solution of each compound was prepared in triplicate in a 96 well-plate (Costar, black side clear bottom), resulting in a final concentration of 100 nM (5% final DMSO in the working solution). Unlabeled MYCN G4 DNA was folded based on the above-mentioned annealing method, then added into the well plate resulting in different concentrations by a seral dilution. The plate was incubated at room temperature for 30 min, followed by centrifuging at 500 rpm for 2 minutes. The fluorescence intensity was then quantitatively recorded by a Synergy Mx microplate reader (BioTek) at Ex 340 nm/Em 500 nm. The fluorescence intensities were then normalized, and the binding affinity was calculated by fitting the curve using one-site total model in GraphPad Prism 8.3.1 software.
In addition to the DMS-footprinting study, the bivalent binding mode of compound B33 toward MYCN hairpin-G4 was also investigated by comparing HP-G4s with different folding types. Four reported HP-G4s with parallel structure (BCL2), (3+1) hybrid structure (HIV and PIM1-form1), and (2+2) chair-type structure (PIM1-form2) were examined by FIA binding test using compound B33 (FIGS. 41A, 41B, 42A, 42B, 43A, 43B, 44A, and 44B). […]

MYCN G4 DNA = assay: Fluorescence quenching of position-labeled MYCN G4 (2-AP at A11/A18/A24, 5′/3′-Cy5); assay type: binding, human
Description: Fluorescence intensity assay. In this disclosure, fluorescence intensity assay (FIA) was used for both validation of hit binding at a single dose and binding affinity determination. For validating hit compounds from SMM screening, 100 μM solution of each compound was prepared in triplicate in a 96 well-plate (Costar, black side clear bottom), resulting in 5% DMSO concentration. 5′Cy5-labeled MYCN G4 DNA was annealed as described above, then added into the well plate resulting in a final concentration of 100 nM. The plate was incubated shaking for 30 min, followed by centrifuging at 500 rpm for 2 minutes. The fluorescence intensity was then measured on a Synergy Mx microplate reader (BioTek) at Ex 649 nm/Em 670 nm. TMPyP4/DMSO were used as positive and negative controls, respectively. In certain examples, compounds were considered binders when a change of >10% change in fluorescence intensity was observed compared to that of negative control (DMSO solution). For binding affinity measurement, small molecule solutions were prepared as serial dilutions in DMSO. Then a final test plate was prepared by adding 5 μL small molecule solutions and 10 μL annealed DNA samples into 85 μL buffer solutions, resulting in the final small molecule concentrations from 0 to 250 μM (5% final DMSO concentration). The fluorescence intensities were normalized, and the binding affinity was calculated by fitting the curve using one-site total model in GraphPad Prism 8.3.1 software. The fluorescence titration using 3′-labeled oligonucleotides was also performed the same way.
2-Aminopurine (2-AP) fluorescence titration. Fluorescence titrations based on 2-aminopurine labeling were performed using the protocol reported previously. Briefly, MYCN G4 oligonucleotide with a 2-AP substitution at either A11 or A18 position was annealed by heating the sample to 95° C. for 5 min and cooling down to RT slowly. The oligonucleotide with folded structure was diluted to 10 μM in Tris buffer (10 mM Tris, pH7.0, 100 mM KCl, 0.005% Tween 20) and prepared in a black 96-well plate (Costar) in triplicate as designed. Small molecules were diluted in DMSO to obtain a series of solutions with concentrations ranging from 0.1 to 5 mM, and then diluted by 20 times added into the plate (5% DMSO final concentration). The final concentration of 2-AP DNA was 1 μM in the well plate. To obtain the background fluorescence, small molecule solutions without DNA were also prepared in the same plate. After incubation for 30 min at RT, the plate was briefly centrifuged and scanned in Synergy Mx microplate reader (BioTek) with Ex 310 nm/Em 365 nm. Fluorescence signals were calculated by averaging the intensities in triplicate wells after subtracting the references. Finally, the binding signals were normalized and the KD value was determined by fitting the curve using a nonlinear sigmoidal dose-response model with a variable slope in GraphPad Prism 8.3.1 software.
To further understand the binding details between compound MY-1 and MYCN G4, a series of FIA studies were designed and performed. […] After incubating 100 μM MY-1 with labeled DNA samples, fluorescence intensities were measured and compared to DMSO controls. Fluorescence of the A11 2-AP DNA sample was quenched by almost 100%, while the quenching percentages were 80% and 70% for A18 and A24 2-AP DNAs, respectively (FIG. 24B, FIGS. 25A-25C). […]

NBEB cells = assay: MTS cell survival assay; assay type: cell-based; settings: up to 45 μM
Description: To examine the effects of G4-binding compounds on NBEB cells, live-cell imaging was performed using an Incucyte interface (described below). NBEB (5K/well), cells were seeded into 96-well plates in triplicate, treated with compound MY-8 at various concentrations (0-45 μM), and cultured until control wells reached confluence. For RT-qPCR and western blotting, NBEB (300K) cells were treated with MY-8 in 6-well dish for 48 h. To examine the time-dependent decrease in MYCNOs expression, cells were treated with 22.5 μM and 45 μM MY-8 and analyzed at various times (0, 4, 24, 48, 72 and 96 h). To validate cell viability, a Trypan Blue exclusion test was performed following treatment at 48 h and 96 h post treatment and the proportion of live versus dead cells was calculated using a hemocytometer.
Cell survival. Following live cell image analysis, a 3-(4, 5-dimethylthiazol-2-yl)-5-(3-carboxymethoxyphenyl)-2-(4-sulfophenyl)-2H-tetrazolium inner salt assay was performed to examine cell survival. (MTS; inner salt assay; Promega, America). Absorbance was measured with a microplate reader (BIO-RAD, America) at 490 nm wavelength. To calculate the proportion of viable cells, MY-8 treated cells were divided by the control samples from each group.

COc1ccc(-c2noc(-c3ccc(NCCCNc4c5ccc(Cl)cc5nc5ccc(OC)cc45)nn3)n2)cc1 [B33, N^1-(6-chloro-2-methoxyacridin-9-yl)-N^3-(6-(3-(4-methoxyphenyl)-1,2,4-oxadiazol-5-yl)pyridazin-3-yl)propane-1,3-diamine]
binding to dsDNA on SPR (dsDNA): did not show any binding to dsDNA | binding to MANGO II RNA G4 by SPR (MANGO II RNA G4): weak binding | Kd (PIM1-form1 HP-G4): 0.279 ± 0.032 µM

COc1ccc(-c2noc(-c3ccc(NCCCN4CCCC4)nn3)n2)cc1 [MY-1, 6-(3-(4-methoxyphenyl)-1,2,4-oxadiazol-5-yl)-N-(3-(pyrrolidin-1-yl)propyl)pyridazin-3-amine]
fluorescence quenching, 3′-Cy5 labeled oligo (MYCN G4 DNA; 100 μM MY-1): 0% | fluorescence quenching, 5′-Cy5 labeled oligo (MYCN G4 DNA; 100 μM MY-1): 15% | fluorescence quenching, A11 2-AP DNA (MYCN G4 DNA; 100 μM MY-1 vs DMSO control): ~100% | fluorescence quenching, A18 2-AP DNA (MYCN G4 DNA; 100 μM MY-1 vs DMSO control): 80% | fluorescence quenching, A24 2-AP DNA (MYCN G4 DNA; 100 μM MY-1 vs DMSO control): 70%

COc1ccc(-c2noc(-c3ccc(NCCCN4CCCCCC4)nn3)n2)cc1 [MY-8, N-(3-(azepan-1-yl)propyl)-6-(3-(4-methoxyphenyl)-1,2,4-oxadiazol-5-yl)pyridazin-3-amine]
CC50 (NBEB cells): 20.5 µM
